Tests used:
[1] = biological target: rat 5HT transporter (rSERT) (Rattus norvegicus, UniProt P31652); test: [3H]5HT transport assay in HeLa cells transfected with BS4E-10 cDNA (rSERT); assay type: cell-based
[2] = biological target: human 5HT transporter (hSERT) (Homo sapiens, UniProt P31645); test: [3H]5HT transport assay in HeLa cells transfected with hSERT cDNA
NCCc1c[nH]c2ccc(O)cc12 = test: cells, lysate or membranes; settings: other: increasing concentrations of unlabeled 5HT, Eadie-Hofstee transformation, transfected HeLa cells; pH 7.4; 37.0 °C

Sequence of rat 5HT transporter (rSERT) (P31652 whole entry): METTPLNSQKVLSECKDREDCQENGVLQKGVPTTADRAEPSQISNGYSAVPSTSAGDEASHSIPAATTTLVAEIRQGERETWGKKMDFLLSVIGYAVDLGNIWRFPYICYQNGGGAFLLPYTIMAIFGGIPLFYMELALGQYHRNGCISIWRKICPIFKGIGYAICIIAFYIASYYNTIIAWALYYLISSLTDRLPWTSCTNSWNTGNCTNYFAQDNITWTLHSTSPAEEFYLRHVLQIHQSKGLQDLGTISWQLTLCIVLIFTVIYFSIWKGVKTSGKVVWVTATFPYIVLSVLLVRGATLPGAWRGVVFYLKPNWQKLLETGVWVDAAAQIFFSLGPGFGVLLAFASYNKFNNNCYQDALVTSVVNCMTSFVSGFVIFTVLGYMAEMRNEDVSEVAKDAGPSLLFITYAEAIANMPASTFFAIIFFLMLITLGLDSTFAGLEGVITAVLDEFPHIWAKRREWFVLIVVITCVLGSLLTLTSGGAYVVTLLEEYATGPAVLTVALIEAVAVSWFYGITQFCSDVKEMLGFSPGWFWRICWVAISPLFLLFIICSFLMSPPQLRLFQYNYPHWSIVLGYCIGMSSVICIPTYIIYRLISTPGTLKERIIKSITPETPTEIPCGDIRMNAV
Sequence of human 5HT transporter (hSERT) (P31645 whole entry): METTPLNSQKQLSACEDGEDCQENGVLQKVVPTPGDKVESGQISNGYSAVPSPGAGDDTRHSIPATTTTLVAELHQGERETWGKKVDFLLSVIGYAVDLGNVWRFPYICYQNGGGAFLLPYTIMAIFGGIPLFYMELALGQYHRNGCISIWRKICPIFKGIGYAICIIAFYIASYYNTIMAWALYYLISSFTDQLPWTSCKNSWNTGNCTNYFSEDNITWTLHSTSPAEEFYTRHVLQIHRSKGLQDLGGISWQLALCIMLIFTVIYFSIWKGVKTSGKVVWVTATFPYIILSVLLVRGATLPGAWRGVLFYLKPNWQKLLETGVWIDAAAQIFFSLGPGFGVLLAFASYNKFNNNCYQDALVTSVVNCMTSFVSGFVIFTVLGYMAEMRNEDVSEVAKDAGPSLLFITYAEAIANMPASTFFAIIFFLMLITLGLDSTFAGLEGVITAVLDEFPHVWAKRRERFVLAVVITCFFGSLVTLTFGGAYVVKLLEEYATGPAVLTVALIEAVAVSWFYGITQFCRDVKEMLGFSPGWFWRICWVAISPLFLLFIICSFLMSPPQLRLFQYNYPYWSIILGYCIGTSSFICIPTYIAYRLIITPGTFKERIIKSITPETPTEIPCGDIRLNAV

Compound | Ki [1] [µM] | inhibition of 5HT uptake (in words) [2] | also measured
NCCc1c[nH]c2ccc(O)cc12 [5HT, 5-hydroxytryptamine] |  |  | Vmax of 5HT transport ([1]; increasing concentrations of unlabeled 5HT, transfected HeLa cells): 6.7×10^-18 mol/cell/min; Km ([1]; read-out: Km of 5HT transport, increasing concentrations of unlabeled 5HT, transfected HeLa cells): 1.5 µM
NCCc1ccc(O)c(O)c1 [Dopamine, dopamine] | > 10 |  | 
COC(=O)[C@H]1[C@@H](c2ccc(I)cc2)C[C@@H]2CC[C@H]1N2C.O=C(O)C(O)C(O)C(=O)O [RTI-55, 3β-[4-iodophenyl]tropan-2β-carboxylic acid methyl ester tartrate] |  | increased potency over cocaine | 
CC(N)Cc1ccccc1 (stereo not drawn) [amphetamine] |  | block 5HT transport at low micromolar concentrations | 
COC(=O)[C@H]1[C@@H](OC(=O)c2ccccc2)C[C@@H]2CC[C@H]1N2C [cocaine] |  | block 5HT transport at low micromolar concentrations | potency for 5HT transport inhibition compared with inhibition of the cloned NA carrier ([1]; rSERT in transfected cells vs cloned NA transporter): predictably lower potency; antagonism of 5HT transport (in words) ([1]; transfected HeLa cells): blocked 5HT transport
NCCc1c[nH]cn1 [histamine] | > 10 |  | 
OC1(c2ccc(Cl)cc2)c2ccccc2C2=NCCN21 (stereo not drawn) [mazindol] | 10 |  | 
NC[C@H](O)c1ccc(O)c(O)c1 [noradrenaline] | > 10 |  | 
human 5HT transporter (hSERT) (Homo sapiens) |  |  | Km (NCCc1c[nH]c2ccc(O)cc12): 0.463 µM
